In patent US20150352108A1, “AMINO-PYRIMIDINE COMPOUNDS AS INHIBITORS OF TBK1 AND/OR IKK EPSILON” (Alzheimer's Institute of America, priority 2009, published 2015) one finds IC50 data, which are given here for 17 compounds.

For orientation: IC50 means the concentration needed to halve the response being measured.

Where two headings read alike, the source gives them in different places.

In one assay the target is T1, IKKε (Homo sapiens, UniProt Q14164).
T1 construct: His-tag; made in house; host or cells: Sf9 insect cells
T1 sequence (Q14164 1-716): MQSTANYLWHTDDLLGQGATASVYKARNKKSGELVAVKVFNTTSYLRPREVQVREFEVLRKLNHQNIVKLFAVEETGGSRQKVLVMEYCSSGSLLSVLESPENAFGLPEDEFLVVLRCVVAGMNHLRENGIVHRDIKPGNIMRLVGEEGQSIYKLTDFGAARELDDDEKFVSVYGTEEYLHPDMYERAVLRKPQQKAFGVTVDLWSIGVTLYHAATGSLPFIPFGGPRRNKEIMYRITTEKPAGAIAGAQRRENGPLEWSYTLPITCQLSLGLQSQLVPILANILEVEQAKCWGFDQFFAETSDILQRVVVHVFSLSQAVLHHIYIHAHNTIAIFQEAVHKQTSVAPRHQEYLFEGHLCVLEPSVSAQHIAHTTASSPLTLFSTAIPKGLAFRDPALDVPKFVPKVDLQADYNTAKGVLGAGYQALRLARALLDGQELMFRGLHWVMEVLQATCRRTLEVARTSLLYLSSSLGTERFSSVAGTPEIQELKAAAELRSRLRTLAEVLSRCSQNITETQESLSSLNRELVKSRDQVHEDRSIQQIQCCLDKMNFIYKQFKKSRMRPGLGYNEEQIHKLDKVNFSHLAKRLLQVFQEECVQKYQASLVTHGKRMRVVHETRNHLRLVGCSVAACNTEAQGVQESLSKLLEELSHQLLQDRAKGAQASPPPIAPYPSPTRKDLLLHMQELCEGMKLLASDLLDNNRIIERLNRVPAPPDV
In words: In-vitro IKKε kinase assay ([γ33]ATP filter-plate). The assay is classed as biochemical. Summed up:
(§1)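 His-tagged Sf9-expressed kinases at 0.1 or 0.02 μg/ml (TBK1) and 0.1 or 0.015 μg/ml (IKKε) for normal and sensitized formats, with myelin basic protein or casein substrate. ATP was at 2×Km (60 μM TBK1, 32 μM IKKε) plus 0.3 μCi [γ33]ATP. Reactions ran 30-45 min, were captured on P-81 filters, and counts were normalized to DMSO.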

The next assay has as its target T2, TBK1 (Homo sapiens, UniProt Q9UHD2).
T2 construct: His-tag; made in house; host or cells: Sf9 insect cells
T2 sequence (Q9UHD2 1-729): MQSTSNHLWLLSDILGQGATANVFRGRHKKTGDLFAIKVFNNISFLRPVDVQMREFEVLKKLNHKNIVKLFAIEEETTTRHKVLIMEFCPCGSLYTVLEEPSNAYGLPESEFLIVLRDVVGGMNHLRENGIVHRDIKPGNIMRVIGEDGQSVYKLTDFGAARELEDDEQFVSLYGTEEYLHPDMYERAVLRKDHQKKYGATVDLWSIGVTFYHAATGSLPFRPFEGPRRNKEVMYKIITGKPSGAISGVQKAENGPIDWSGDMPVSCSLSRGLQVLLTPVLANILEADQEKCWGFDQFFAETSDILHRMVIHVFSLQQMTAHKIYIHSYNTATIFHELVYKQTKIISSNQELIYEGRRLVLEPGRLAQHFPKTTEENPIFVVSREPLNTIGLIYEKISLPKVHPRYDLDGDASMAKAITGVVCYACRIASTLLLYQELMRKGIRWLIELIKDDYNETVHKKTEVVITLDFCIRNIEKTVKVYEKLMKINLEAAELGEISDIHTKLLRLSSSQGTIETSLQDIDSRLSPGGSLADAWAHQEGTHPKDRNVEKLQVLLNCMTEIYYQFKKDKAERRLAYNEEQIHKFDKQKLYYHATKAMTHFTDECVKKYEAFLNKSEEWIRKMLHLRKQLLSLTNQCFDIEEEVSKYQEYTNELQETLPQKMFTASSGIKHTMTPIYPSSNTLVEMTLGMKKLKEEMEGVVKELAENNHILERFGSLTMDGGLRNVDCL
In words: In-vitro TBK1 kinase assay ([γ33]ATP filter-plate). The format is biochemical. Summed up:
as §1

Assay [1] relates to IKKε-mediated phosphorylation of IRF3. In words: In-situ phosphorylation of IRF3 (pIRF3 Ser396 ELISA) in HEK293T cells cotransfected with IRF3 and IKKε. Conditions: Homo sapiens, HEK-293T. The assay is classed as cell-based. Summed up: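 For the IRF3 ELISA, HEK293T cells cotransfected with IRF3 and IKKε were replated at 20,000/well and treated 20 h. Phospho-Ser396 IRF3 was measured by ELISA and normalised to DMSO, with viability checked by CellTiter-Glo. For IRF7, cells transfected with IRF7 and TBK1 were treated overnight, and pSer477/Ser479 IRF7 was detected by Western blot.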
(ELISA stands for enzyme-linked immunosorbent assay.)

Where [2] appears, read: text bins, read-out: IC50 for inhibition of the kinase activity of IKKε.
The mark [3] stands for this setting: text bins, read-out: IC50 for inhibition of the kinase activity of TBK1.
Setting [4] is: HEK293T cells, 20 hours, text bins, read-out: IC50 for inhibition of the in-situ IKKε-mediated phosphorylation of IRF3.
Setting [5] is: HEK293T cells in culture, Table 3, read-out: pIRF3 ELISA IC50.

As for `CN1CCC(NS(=O)(=O)c2ccc(Nc3nccc(-c4ccc(OC5CCOCC5)c(C#N)c4)n3)cc2)CC1` [compound 371, 4-({4-[3-cyano-4-(tetrahydro-2H-pyran-4-yloxy)phenyl]pyrimidin-2-yl}amino)-N-(1-methylpiperidin-4-yl)benzenesulfonamide], the IC50 was less than 5 nM at IKKε (setting [2]), less than 10 nM on TBK1 (setting [3]) and 100 to 250 nM in assay [1] (setting [4]).

Regarding `N#Cc1cc(-c2ccnc(Nc3cccc(N4CCN(CCO)CC4)c3)n2)ccc1OC1CCOCC1` [compound 620, 5-[2-({3-[4-(2-Hydroxyethyl)piperazin-1-yl]phenyl}amino)pyrimidin-4-yl]-2-(tetrahydro-2H-pyran-4-yloxy)benzonitrile], the IC50 at IKKε (Table 3, read-out: IKKε IC50) is 0.7 nM; on IKKε (setting [2]) it was less than 5 nM; at TBK1 (Table 3, read-out: TBK1 IC50) it was 1.9 nM; at TBK1 (setting [3]) it was less than 10 nM; in assay [1] (setting [5]) it was 50.3 nM; in assay [1] (setting [4]) it was less than 100 nM.

In the case of `COc1cc(Nc2nccc(-c3ccc(OC4CCOCC4)c(C#N)c3)n2)ccc1C(=O)N1CCC1` [compound 567, 5-(2-{[4-(Azetidin-1-ylcarbonyl)-3-methoxyphenyl]amino}pyrimidin-4-yl)-2-(tetrahydro-2H-pyran-4-yloxy)benzonitrile], the IC50 was less than 5 nM at IKKε (setting [2]), less than 10 nM on TBK1 (setting [3]) and less than 100 nM in assay [1] (setting [4]).

With `Cc1ccc(Nc2nccc(-c3ccc(OC4CCOCC4)c(C#N)c3)n2)cc1OCCCN1CCOCC1` [compound 517, 5-[2-({4-Methyl-3-[3-(morpholin-4-yl)propoxy]phenyl}amino)pyrimidin-4-yl]-2-(tetrahydro-2H-pyran-4-yloxy)benzonitrile], the IC50 at IKKε (setting [2]) is less than 5 nM; at TBK1 (setting [3]) it was less than 10 nM; in assay [1] (setting [4]), less than 100 nM.

Regarding `COc1cc(Nc2nccc(-c3ccc(OC4CCOCC4)c(C#N)c3)n2)ccc1C(=O)NCCC1CCCN1C` (centres unmarked) [compound 307, 4-({4-[3-cyano-4-(tetrahydro-2H-pyran-4-yloxy)phenyl]pyrimidin-2-yl}amino)-2-methoxy-N-[2-(1-methylpyrrolidin-2-yl)ethyl]benzamide], the concentration for half-maximal inhibition (IC50) on IKKε (setting [2]) is less than 5 nM; at TBK1 (setting [3]), less than 10 nM; in assay [1] (setting [4]), 100 to 250 nM.

On to `N#Cc1cc(-c2ccnc(Nc3ccc(N4CCOCC4)cc3)n2)ccc1OCC1CCCN(C(=O)CO)C1` (centres unmarked) [Example 219, 2-{[1-(hydroxyacetyl)piperidin-3-yl]methoxy}-5-(2-{[4-(morpholin-4-yl)phenyl]amino}pyrimidin-4-yl)benzonitrile], for which the IC50 at IKKε (setting [2]) is 5 to 50 nM; on TBK1 (setting [3]), less than 10 nM; in assay [1] (setting [4]) it was 100 to 250 nM.

Regarding `CC(C)(C)CC(=O)Nc1ccc(-c2ccnc(Nc3ccc(N4CCOCC4)cc3)n2)cc1C#N` [Example 202, N-[2-cyano-4-(2-{[4-(morpholin-4-yl)phenyl]amino}pyrimidin-4-yl)phenyl]-3,3-dimethylbutanamide], the values for the IC50 (at IKKε (setting [2]); on TBK1 (setting [3]); in assay [1] (setting [4])) were 5 to 50 nM, less than 10 nM and 100 to 250 nM, respectively.

On to `COc1ccc(Nc2nccc(-c3ccc(OC4CCOCC4)c(C#N)c3)n2)cc1OCCCN1CCNCC1` [compound 526, 5-[2-({4-methoxy-3-[3-(piperazin-1-yl)propoxy]phenyl}amino)pyrimidin-4-yl]-2-(tetrahydro-2H-pyran-4-yloxy)benzonitrile], for which the IC50 at IKKε (setting [2]) is less than 5 nM; on TBK1 (setting [3]), less than 10 nM; in assay [1] (setting [4]), 100 to 250 nM.

As to `Cc1cc(Nc2nccc(-c3ccc(OC4CCOCC4)c(C#N)c3)n2)ccc1N1CCOCC1` [Example 18, 5-(2-{[3-methyl-4-(morpholin-4-yl)phenyl]amino}pyrimidin-4-yl)-2-(tetrahydro-2H-pyran-4-yloxy)benzonitrile], the IC50 is less than 5 nM at IKKε (setting [2]), less than 10 nM on TBK1 (setting [3]) and 100 to 250 nM in assay [1] (setting [4]).

For the compound `COc1cc(Nc2nccc(-c3ccc(OC4CCOCC4)c(C#N)c3)n2)ccc1OCCN` [Example 30, 5-(2-{[4-(2-aminoethoxy)-3-methoxyphenyl]amino}pyrimidin-4-yl)-2-(tetrahydro-2H-pyran-4-yloxy)benzonitrile], the IC50 was less than 5 nM at IKKε (setting [2]), less than 10 nM on TBK1 (setting [3]) and 250 to 500 nM in assay [1] (setting [4]).

For the compound `COc1cc(Nc2nccc(-c3ccc(OC4CCOCC4)c(C#N)c3)n2)ccc1OCCCN1CCOCC1` [Example 31, 5-[2-({3-methoxy-4-[3-(morpholin-4-tl)propoxy]phenyl}amino)pyrimidin-4-yl]-2-(tetrahydro-2H-pyran-4-yloxy)benzonitrile], the IC50 was less than 5 nM at IKKε (setting [2]), less than 10 nM on TBK1 (setting [3]) and less than 100 nM in assay [1] (setting [4]).

`N#Cc1cc(-c2ccnc(Nc3ccc(CNC(=O)CO)cc3)n2)ccc1OC1CCOCC1` [compound 495, N-[4-({4-[3-cyano-4-(tetrahydro-2H-pyran-4-yloxy)phenyl]pyrimidin-2-yl}amino)benzyl]-2-hydroxyacetamide]: the IC50 at IKKε (setting [2]) was less than 5 nM; on TBK1 (setting [3]) it was less than 10 nM; in assay [1] (setting [4]), less than 100 nM.

In the case of `CCC(=O)Nc1ccc(-c2ccnc(Nc3ccc(N4CCOCC4)cc3)n2)cc1C#N` [compound 445, N-[2-Cyano-4-(2-{[4-(morpholin-4-yl)phenyl]amino}pyrimidin-4-yl)phenyl] propanamide], the IC50 on IKKε (setting [2]) is 5 to 50 nM; on TBK1 (setting [3]), less than 10 nM; in assay [1] (setting [4]), 250 to 500 nM.

For `COc1cc(Nc2nccc(-c3ccc(OC4CCOCC4)c(C#N)c3)n2)ccc1S(=O)(=O)NCCCn1ccnc1` [Example 83, 4-({4-[3-cyano-4-(tetrahydro-2H-pyran-4-yloxy)phenyl]pyrimidin-2-yl}amino)-N-[3-(1H-imidazol-1-yl)propyl]-2-methoxybenzene-sulfonamide], the IC50 was less than 5 nM at IKKε (setting [2]), less than 10 nM on TBK1 (setting [3]) and 100 to 250 nM in assay [1] (setting [4]).

Consider `COc1ccc(Nc2nccc(-c3ccc(OC4CCOCC4)c(C#N)c3)n2)cc1OCCCC1CCNCC1` [compound 522, 5-[2-({4-methoxy-3-[3-(piperidin-4-yl)propoxy]phenyl}amino)pyrimidin-4-yl]-2-(tetrahydro-2H-pyran-4-yloxy)benzonitrile], for which the values for the IC50 (at IKKε (setting [2]); at TBK1 (setting [3]); in assay [1] (setting [4])) were less than 5 nM, less than 10 nM and less than 100 nM, respectively.

On to `N#Cc1cc(-c2ccnc(Nc3cccc(CS(=O)(=O)NCCO)c3)n2)ccc1NC(=O)C1CC1` [compound 627, N-(2-Cyano-4-{2-[(3-{[(2-hydroxyethyl)sulfamoyl]methyl}phenyl)amino]pyrimidin-4-yl}phenyl) cyclopropane-carboxamide], for which the IC50 on IKKε (Table 3, read-out: IKKε IC50) was 3 nM; at IKKε (setting [2]), less than 5 nM; on TBK1 (Table 3, read-out: TBK1 IC50), 1.3 nM; on TBK1 (setting [3]), less than 10 nM; in assay [1] (setting [5]) it was 1100 nM.

Take `COc1cc(Nc2nccc(-c3ccc(OC4CCOCC4)c(C#N)c3)n2)ccc1CN1CCN(C)CC1` [compound 479, 5-[2-({3-Methoxy-4-[(4-methylpiperazin-1-yl)methyl]phenyl}amino)pyrimidin-4-yl]-2-(tetrahydro-2H-pyran-4-yloxy)benzonitrile]: the results for the IC50 (on IKKε (setting [2]); at TBK1 (setting [3]); in assay [1] (setting [4])) were less than 5 nM, less than 10 nM and less than 100 nM, respectively.
